In patent publication US20240368115A1, “REGULATOR CONTAINING TRICYCLIC DERIVATIVE, PREPARATION METHOD THEREFOR AND APPLICATION THEREOF” (SHUJING BIOPHARMA CO., LTD, priority 2021, published 2024):
pEC50, pIC50: −log10 of the molar value. Like-named read-outs stand apart in the source and are kept apart here.

How the values were obtained:
[1] = target: T1, D2L receptor (Homo sapiens, UniProt P14416); test: D2L receptor cAMP agonist test; format: cell-based; conditions: HEK293 cell strain stably expressing D2L receptor; for pEC50: cAMP, forskolin 0.5 μM; for D2L Max Act %: positive control dopamine 1 μM
T1 construct: expressed in transfected cells
Experimental: (§1) • cAMP detection kit was purchased from Cisbio; an HEK293 cell strain stably expressing D2L receptor was constructed by Shanghai Shujing Biopharma Co., Ltd.; dopamine, forskolin, and IBMX were purchased from Sigma; ProxiPlate-384 well plates were purchased from PerkinElmer; HBSS was purchased from Thermo Fisher Scientific.
• (1) The cryopreserved cells were thawed in a water bath at 37° C., the cell suspension was resuspended in HBSS buffer, and the mixed solution was centrifuged at 750 rpm for 5 min to remove the medium. The pellet was resuspended in an appropriate amount of experimental buffer, and an appropriate amount of cell suspension was diluted to 0.4×10^6 cells/mL. • (2) 5 μL of cell suspension was added to a ProxiPlate-384 well plate (2×10^3 cells/well), and the plate was centrifuged at 1000 rpm for 1 min. • (3) Test compounds were serially diluted in an experimental buffer, and 5 μL of the mixed solution was transferred to the reaction plate with Bravo.

[2] = target: 5-HT2A receptor (Homo sapiens, UniProt P28223); test: Calcium flux test for 5-HT2A receptor; format: cell-based; conditions: CHO cell strain stably expressing 5-HT2A receptor; for pIC50: calcium flux, antagonism of serotonin; for 5-HT2A Max Inh %: positive control ketanserin 10^−7 M
Experimental: • Fluo-4 calcium flux detection kit was purchased from Invitrogen; a CHO cell strain stably expressing 5-HT2A receptor was purchased from PerkinElmer; serotonin was purchased from Sigma; ketanserin was purchased from Targetmol; polylysine-coated 384-well plates and 384-well compound plates were purchased from Greiner Bio-One. Molecular Device FLIPR, Agilent Bravo liquid workstation, and Countstar BioTech cell counter.
• (1) The cryopreserved cells were rapidly thawed in a water bath at 37° C., and the cells were resuspended in a plating medium. The cryopreservation solution was removed by centrifugation at 200×g. The pellet was resuspended in an appropriate amount of plating medium, 20 μL of cell suspension was counted using a cell counter, and the cell density was diluted to 1×10^6 cells/mL. • (2) 20 μL of cell suspension was added to a polylysine-coated 384-well plate (2×10^4 cells/well). • (3) The cell plate was incubated in a 37° C./5% CO2 incubator for 16-20 h.
• (1) The cell plate was taken out from the incubator and centrifuged at 100×g to remove the medium. 20 μL of experimental buffer was added, and then 20 μL of 2× fluorescent probe solution was added. […] The cell plate and agonist positive compound plate were placed into the FLIPR instrument, the detection program was run, 10 μL of the diluted compound was transferred from the agonist compound plate to the cell plate, and the fluorescence signal was read. […] The cell plate and test compound plate were placed in the FLIPR instrument, the detection program was run, and 10 μL of the diluted compound was transferred from the test compound plate to the cell plate. […] The test compound plate was then taken out, and the agonist positive compound plate with 6×EC50 concentration was placed.
Inhibition rate (Inhibition %)=(negative control reading value−compound reading value)/(negative control reading value−positive control reading value)×100%

[3] = target: T2, D2S receptor (Homo sapiens, UniProt P14416); test: D2S receptor cAMP agonist test; format: cell-based; conditions: HEK293 cell strain stably expressing D2S receptor; for pEC50: cAMP, forskolin 5×10^−7 M; for D2S Max Act %: positive control dopamine 1×10^−7 M
T2 construct: expressed in transfected cells
Text: as §1, with “cAMP” for “• cAMP”, “D2S” for “D2L”
(§2) • (1) The cultured cells were digested with trypsin, and the cell suspension was washed with HBSS buffer after the digestion was terminated. The medium was removed by centrifugation at 200×g. The pellet was resuspended in an appropriate amount of experimental buffer, and 20 μL of cell suspension was counted using a cell counter and diluted to 0.6×10^6 cells/mL. • (2) 5 μL of cell suspension was added to a ProxiPlate-384 well plate (3×10^3 cells/well). • (3) Test compounds were serially diluted in an experimental buffer, and 5 μL of the mixed solution was transferred to the reaction plate with Bravo.

[4] = Pharmacokinetic test in mice; format: in vivo; conditions: plasma, 5 mg/kg, oral intragastric, single dose 5 mg/kg
Experimental: Male ICR mice were administered orally intragastrically, the plasma concentrations of the compounds of the present invention were measured in the mice, the PK parameters were calculated, and the pharmacokinetic evaluation was performed on the compounds of the present invention.
• (1) Test samples: the compounds of the examples of the present invention, self-made. • (2) Test animals: ICR mice, SPF grade, male, Xuzhou Medical University. • (3) Main test instruments:
Drug preparation: according to the weight of the weighed drug, the preparation volume was calculated. 5% of DMSO was added firstly. After the drug was fully dissolved, 95% of 20% aqueous PB-cyclodextrin solution was then added, and the mixture was mixed well for later use.
Administration route: oral intragastric administration. Frequency and duration of administration: single administration.
ICR mice were stratified according to body weight and then randomly divided into groups of 9 mice each, and the mice were fasted overnight prior to the test. The mice were separately administered orally intragastrically. 50 μL of blood was collected from the fundus vein of the mouse at 0 h, 0.083 h, 0.25 h, 0.5 h, 1 h, 2 h, 4 h, 8 h, 12 h, and 24 h (3 time points for each mouse) to a sample tube containing heparin sodium as an anticoagulant, and the tube was placed in wet ice and centrifuged at 4000 r·min^−1 for 10 min. The plasma was separated, and cryopreserved in a refrigerator at −80° C. for testing.
The concentrations of plasma samples were measured by high performance liquid chromatography-tandem mass spectrometry (LC-MS/MS). The retention times of the compounds and internal standard, chromatogram acquisitions, and integrals of chromatograms were processed using the software Analyst (AB SCIEX), and the data statistics were processed using the software Watson LIMS (Thermo Fisher Scientific) or Analyst (AB SCIEX). The concentration of plasma was processed using a non-compartmental model of the pharmacokinetic software WinNonlin™ Version 6.3 (Pharsight, Mountain View, CA), and pharmacokinetic parameters were calculated by a linear log-trapezoidal method.

[5] = target: T3, 5-HT1A receptor (Homo sapiens, UniProt P08908); test: 5-HT1A receptor cAMP agonist test; format: cell-based; conditions: HEK293 cell strain stably expressing 5-HT1A receptor; for pEC50: cAMP, forskolin 2.5×10^−7 M; for 5-HT1A Max Act %: positive control serotonin 10^−6 M
T3 construct: expressed in transfected cells
T3 sequence (P08908 1-422): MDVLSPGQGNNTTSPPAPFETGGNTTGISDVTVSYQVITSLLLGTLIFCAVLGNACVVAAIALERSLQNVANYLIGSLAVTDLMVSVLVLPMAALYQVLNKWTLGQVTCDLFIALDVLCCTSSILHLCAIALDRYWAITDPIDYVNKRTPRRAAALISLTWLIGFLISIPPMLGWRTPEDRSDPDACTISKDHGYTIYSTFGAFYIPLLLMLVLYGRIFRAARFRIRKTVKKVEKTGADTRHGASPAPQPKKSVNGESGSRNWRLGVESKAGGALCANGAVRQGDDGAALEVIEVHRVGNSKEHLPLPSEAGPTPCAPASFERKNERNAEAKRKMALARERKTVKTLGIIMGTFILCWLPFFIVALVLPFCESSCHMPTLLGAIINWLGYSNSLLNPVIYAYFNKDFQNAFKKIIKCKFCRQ
Text: as §1, with “5-HT1A” for “D2L”, “serotonin,” for “dopamine,”
as §2, with “0.4×10^6” for “0.6×10^6”, “(2×10^3” for “(3×10^3”

[6] = male, ICR, mouse, po, read-out: AUC(0-inf)
[7] = male, ICR, mouse, po, read-out: Cmax

T2 sequence (P14416 1-414 isoform P14416-2): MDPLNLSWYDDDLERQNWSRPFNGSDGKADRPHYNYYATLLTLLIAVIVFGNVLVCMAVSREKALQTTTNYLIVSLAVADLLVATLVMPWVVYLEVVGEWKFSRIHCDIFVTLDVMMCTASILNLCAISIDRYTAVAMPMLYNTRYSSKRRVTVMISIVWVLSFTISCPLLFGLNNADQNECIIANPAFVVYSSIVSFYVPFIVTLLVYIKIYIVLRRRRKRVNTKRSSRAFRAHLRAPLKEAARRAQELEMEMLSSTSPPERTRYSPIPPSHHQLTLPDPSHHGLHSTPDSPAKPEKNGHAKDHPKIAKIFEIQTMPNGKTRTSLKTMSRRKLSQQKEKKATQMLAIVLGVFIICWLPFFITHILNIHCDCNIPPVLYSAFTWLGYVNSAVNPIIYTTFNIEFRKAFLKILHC
Sequence of 5-HT2A receptor (P28223 whole entry): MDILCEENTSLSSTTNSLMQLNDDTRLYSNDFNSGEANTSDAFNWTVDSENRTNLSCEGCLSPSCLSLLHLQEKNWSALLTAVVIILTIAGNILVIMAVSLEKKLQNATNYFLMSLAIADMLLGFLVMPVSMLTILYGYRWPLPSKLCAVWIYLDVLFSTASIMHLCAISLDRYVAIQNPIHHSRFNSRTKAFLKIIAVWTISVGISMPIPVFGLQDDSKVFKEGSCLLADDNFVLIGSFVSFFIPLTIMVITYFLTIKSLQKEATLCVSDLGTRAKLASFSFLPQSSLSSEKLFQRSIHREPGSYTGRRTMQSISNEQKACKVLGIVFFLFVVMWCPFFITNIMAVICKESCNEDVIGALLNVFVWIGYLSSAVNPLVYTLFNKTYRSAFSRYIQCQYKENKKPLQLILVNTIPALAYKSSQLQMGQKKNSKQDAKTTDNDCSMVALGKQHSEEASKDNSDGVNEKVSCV
T1 sequence (P14416 whole entry): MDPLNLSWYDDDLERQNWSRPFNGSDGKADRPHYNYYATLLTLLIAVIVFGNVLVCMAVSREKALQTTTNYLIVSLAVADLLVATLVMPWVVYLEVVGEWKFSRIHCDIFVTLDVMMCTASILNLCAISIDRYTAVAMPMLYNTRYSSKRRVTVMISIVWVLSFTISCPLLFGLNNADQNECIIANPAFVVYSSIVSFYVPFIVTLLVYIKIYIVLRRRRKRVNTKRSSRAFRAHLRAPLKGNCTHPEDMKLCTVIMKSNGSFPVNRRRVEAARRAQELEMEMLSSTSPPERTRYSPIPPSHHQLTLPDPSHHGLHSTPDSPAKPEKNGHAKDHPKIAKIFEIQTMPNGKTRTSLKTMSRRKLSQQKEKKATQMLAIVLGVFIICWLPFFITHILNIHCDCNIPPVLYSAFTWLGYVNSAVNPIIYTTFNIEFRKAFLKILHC

| Structure (SMILES) | pEC50 [1] | D2L Max Act % [1] | pIC50 [2] | 5-HT2A Max Inh % [2] | pEC50 [3] | D2S Max Act % [3] | half-life ([4]; male, ICR, mouse, po) | AUC(0-inf) [4, 6] | Cmax [4, 7] | pEC50 [5] | 5-HT1A Max Act % [5] | AUC(0-inf) ([4]; male ICR mice) | Cmax ([4]; male ICR mice) | t1/2 ([4]; male ICR mice) |
| --- | --- | --- | --- | --- | --- | --- | --- | --- | --- | --- | --- | --- | --- | --- |
| O=C1Nc2cc(OCCCCN3CCN(c4cccc(Cl)c4Cl)CC3)ccc2[C@H]2C[C@@H]12 (single isomer, unassigned) [Example 1-P1] | 8.97 | 47.7% | 6.13 | 100.3% | 9.03 | 111.9% | 34.3 h | 13100 ng·h/mL | 341 ng/mL | 5.75 | 33.9% |  |  |  |
| O=C1Nc2cc(OCCCCN3CCN(c4cccc(Cl)c4Cl)CC3)ccc2[C@@H]2C[C@H]12 (single isomer, unassigned) [Example 1-P2] | 9.21 | 33.1% | 6.13 | 100.3% | 8.83 | 113.8% | 10.8 h | 7100 ng·h/mL | 430 ng/mL | 5.92 | 45.2% |  |  |  |
| O=C1Nc2cc(OCCCCN3CCN(c4cccc5sccc45)CC3)ccc2C2CC12 (single isomer, unassigned) [Example 42-P1] | 9.00 | 29.6% | 5.71 | 100.5% | 9.00 | 102.0% | 4.1 h | 8000 ng·h/mL | 1180 ng/mL | 6.84 | 62.9% |  |  |  |
| O=C1Nc2cc(OCCCCN3CCN(c4cccc5sccc45)CC3)ccc2C2CC12 (single isomer, unassigned) [Example 42-P2] | 9.37 | 32.6% | 6.30 | 97.3% | 9.03 | 99.2% |  |  |  | 6.16 | 45.5% | 11157.8 ng·h/mL | 1296.7 ng/mL | 5.8 h |
| O=C1Nc2cc(OCCCCN3CCN(c4cccc5c4CCO5)CC3)ccc2C2CC12 (single isomer, unassigned) [Example 45-P1] | 8.67 | 28.0% | 6.40 | 99.8% | 9.00 | 106.1% | 3.2 h | 4770 ng·h/mL | 774 ng/mL | 6.61 | 56.4% |  |  |  |
| O=C1Nc2cc(OCCCCN3CCN(c4cccc5c4CCO5)CC3)ccc2C2CC12 (single isomer, unassigned) [Example 45-P2] | 9.21 | 41.5% | 6.39 | 100.0% | 9.05 | 111.5% |  |  |  | 6.70 | 52.8% | 4083.7 ng·h/mL | 660.0 ng/mL | 3.0 h |
| O=C1CCc2ccc(OCCCCN3CCN(c4cccc(Cl)c4Cl)CC3)cc2N1 [Aripiprazole, reference compound] |  |  |  | 86.0% |  |  | 3.5 h | 1040 ng·h/mL | 180 ng/mL |  | 43.8% |  |  |  |
| O=C1Nc2cc(OCCCCN3CCN(c4cccc5c4OC(F)(F)O5)CC3)ccc2C2CC12 (centres unmarked) [Example 41, 5-(4-(4-(2,2-Difluorobenzo[d][1,3]dioxolan-4-yl)piperazin-1-yl)butoxy)-1,1a,3,7b-tetrahydro-2H-cyclopropa[c]quinolin-2-one] | 9.01 | 42.4% | 5.48 | 80.4% | 9.04 | 115.0% | 8.6 h | 9970 ng·h/mL | 971 ng/mL | 7.29 | 92.7% |  |  |  |
| O=C1COc2ccc(OCCCCN3CCN(c4cccc(Cl)c4Cl)CC3)cc2N1 [RP5063, reference compound] |  |  | 5.04 | 67.6% |  |  | 3.8 h | 1560 ng·h/mL | 195 ng/mL | 5.73 | 31.6% |  |  |  |
